Consider ten compounds from ChEMBL document CHEMBL5365500, “Development and Antibacterial Properties of 4-[4-(Anilinomethyl)-3-phenylpyrazol-1-yl]benzoic Acid Derivatives as Fatty Acid Biosynthesis Inhibitors” (J Med Chem, 2023).

Structures are written as SMILES. Values after ≈ are worked out from the molar mass of the structure shown. Bounds are passed on as bounds.

Format in all cases: functional
Holding throughout (conditions): time 20-24 hrs

The subject of one assay is Bacillus subtilis. Briefly: Antimicrobial activity against antibiotic-resistant Bacillus subtilis ATCC 6623 assessed as inhibition of visible growth measured after 20 to 24 hrs incubation by CLSI method.
The test system of assay [1] is Staphylococcus aureus. Briefly: Antimicrobial activity against antibiotic-resistant Staphylococcus aureus ATCC 33592 assessed as inhibition of visible growth measured after 20 to 24 hrs incubation by CLSI method.
For assay [2], the system named is Enterococcus faecalis. The assay is described as follows: Antimicrobial activity against antibiotic-resistant Enterococcus faecalis ATCC 51299 assessed as inhibition of visible growth measured after 20 to 24 hrs incubation by CLSI method.
The subject of the next assay is Enterococcus faecium. The assay is described as follows: Antimicrobial activity against antibiotic-resistant Enterococcus faecium ATCC 700221 assessed as inhibition of visible growth measured after 20 to 24 hrs incubation by CLSI method.
For assay [3], the system named is Staphylococcus aureus. Briefly: Antimicrobial activity against antibiotic-resistant Staphylococcus aureus ATCC BAA-2312 assessed as inhibition of visible growth measured after 20 to 24 hrs incubation by CLSI method.
The test system of assay [4] is Staphylococcus epidermidis. Briefly: Antimicrobial activity against antibiotic-resistant Staphylococcus epidermidis ATCC 700296 assessed as inhibition of visible growth measured after 20 to 24 hrs incubation by CLSI method.
The subject of assay [5] is Staphylococcus aureus. The assay is described as follows: Antimicrobial activity against Staphylococcus aureus ATCC 25923 assessed as inhibition of visible growth measured after 20 to 24 hrs incubation by CLSI method.
In assay [6] the test system is Enterococcus faecalis. Briefly: Antimicrobial activity against antibiotic-susceptible Enterococcus faecalis ATCC 29212 assessed as inhibition of visible growth measured after 20 to 24 hrs incubation by CLSI method.
The test system of assay [7] is Staphylococcus aureus. Briefly: Antimicrobial activity against antibiotic-resistant Staphylococcus aureus ATCC 700699 assessed as inhibition of visible growth measured after 20 to 24 hrs incubation by CLSI method.
The test system of assay [8] is Staphylococcus aureus. Briefly: Antimicrobial activity against antibiotic-resistant Staphylococcus aureus ATCC 33591 assessed as inhibition of visible growth measured after 20 to 24 hrs incubation by CLSI method.

As for `O=C(O)c1ccc(-n2cc(CNc3cccc(OC(F)(F)F)c3)c(-c3ccc(F)c(F)c3)n2)cc1`, the MIC in the assay on Bacillus subtilis was 1 µg/mL (≈ 2.04 µM); with Staphylococcus aureus [1], 4 µg/mL (≈ 8.17 µM); with Enterococcus faecalis [2], 8 µg/mL (≈ 16.3 µM); in the assay on Enterococcus faecium it was 4 µg/mL (≈ 8.17 µM); in the assay with Staphylococcus aureus [3] it was 2 µg/mL (≈ 4.09 µM); in assay [4], 8 µg/mL (≈ 16.3 µM). Also, the MIC in the assay with Staphylococcus aureus [5] turned out to be 4 µg/mL (≈ 8.17 µM); with Enterococcus faecalis [6] it was 8 µg/mL (≈ 16.3 µM); with Staphylococcus aureus [7], 4 µg/mL (≈ 8.17 µM); in the assay with Staphylococcus aureus [8] it was 1 µg/mL (≈ 2.04 µM).
Regarding `COc1ccc(NCc2cn(-c3ccc(C(=O)O)cc3)nc2-c2ccc(F)cc2)cc1C(F)(F)F`, the MIC with Bacillus subtilis was 8 µg/mL (≈ 16.5 µM); in the assay with Staphylococcus aureus [1], 16 µg/mL (≈ 33 µM); with Enterococcus faecalis [2] it was 32 µg/mL (≈ 65.9 µM); in the assay on Enterococcus faecium, 32 µg/mL (≈ 65.9 µM); in the assay with Staphylococcus aureus [3] it was 16 µg/mL (≈ 33 µM); in [4], 16 µg/mL (≈ 33 µM). Besides, the MIC is 16 µg/mL (≈ 33 µM) in the assay with Staphylococcus aureus [5], 32 µg/mL (≈ 65.9 µM) in the assay with Enterococcus faecalis [6], 8 µg/mL (≈ 16.5 µM) in the assay on Staphylococcus aureus [7] and 8 µg/mL (≈ 16.5 µM) with Staphylococcus aureus [8].
On to `O=C(O)c1ccc(-n2cc(CNc3cc(F)cc(C(F)(F)F)c3)c(-c3ccc(F)cc3)n2)cc1`, for which the MIC in the assay on Bacillus subtilis came to 4 µg/mL (≈ 8.45 µM); with Staphylococcus aureus [1], 4 µg/mL (≈ 8.45 µM); in the assay on Enterococcus faecalis [2], 16 µg/mL (≈ 33.8 µM); in the assay with Enterococcus faecium, 8 µg/mL (≈ 16.9 µM); in the assay on Staphylococcus aureus [3], 2 µg/mL (≈ 4.22 µM); in assay [4], 4 µg/mL (≈ 8.45 µM). The MIC in the assay on Staphylococcus aureus [5] came out at 2 µg/mL (≈ 4.22 µM); with Enterococcus faecalis [6], 16 µg/mL (≈ 33.8 µM); with Staphylococcus aureus [7] it was 2 µg/mL (≈ 4.22 µM); with Staphylococcus aureus [8], 2 µg/mL (≈ 4.22 µM).
Turning to `O=C(O)c1ccc(-n2cc(CNc3ccc(Br)cc3)c(-c3ccc(F)cc3)n2)cc1`, the minimal inhibitory concentration (MIC) in the assay with Bacillus subtilis is 4 µg/mL (≈ 8.58 µM); in the assay on Staphylococcus aureus [1] it was greater than 32 µg/mL; in the assay with Enterococcus faecalis [2], greater than 32 µg/mL; with Enterococcus faecium, greater than 32 µg/mL; in the assay with Staphylococcus aureus [3], 16 µg/mL (≈ 34.3 µM); in [4] it was greater than 32 µg/mL. Besides, the MIC was 8 µg/mL (≈ 17.2 µM) with Staphylococcus aureus [5], greater than 32 µg/mL with Enterococcus faecalis [6], 16 µg/mL (≈ 34.3 µM) with Staphylococcus aureus [7] and 4 µg/mL (≈ 8.58 µM) with Staphylococcus aureus [8].
Take `NS(=O)(=O)c1ccc(NCc2cn(-c3ccc(C(=O)O)cc3)nc2-c2ccc(F)cc2)cc1`: the MIC is greater than 32 µg/mL in the assay with Bacillus subtilis; greater than 32 µg/mL with Staphylococcus aureus [1]; greater than 32 µg/mL in the assay on Enterococcus faecalis [2]; greater than 32 µg/mL with Enterococcus faecium; greater than 32 µg/mL in the assay with Staphylococcus aureus [3]; 16 µg/mL (≈ 34.3 µM) in [4]. Besides, the MIC in the assay with Staphylococcus aureus [5], in the assay on Enterococcus faecalis [6], with Staphylococcus aureus [7] and in the assay on Staphylococcus aureus [8] was greater than 32 µg/mL each time.
Regarding `O=C(O)c1ccc(-n2cc(CNc3ccc(Br)c(C(F)(F)F)c3)c(-c3ccc(F)c(F)c3)n2)cc1`, the minimal inhibitory concentration (MIC) in the assay on Bacillus subtilis came to 1 µg/mL (≈ 1.81 µM); with Staphylococcus aureus [1], 0.5 µg/mL (≈ 0.905 µM); in the assay with Enterococcus faecalis [2] it was 4 µg/mL (≈ 7.24 µM); in the assay on Enterococcus faecium, 2 µg/mL (≈ 3.62 µM); in the assay with Staphylococcus aureus [3], 0.5 µg/mL (≈ 0.905 µM); in assay [4], 4 µg/mL (≈ 7.24 µM). Also, the MIC with Staphylococcus aureus [5] was found to be 0.5 µg/mL (≈ 0.905 µM); in the assay with Enterococcus faecalis [6], 2 µg/mL (≈ 3.62 µM); in the assay on Staphylococcus aureus [7], 1 µg/mL (≈ 1.81 µM); in the assay with Staphylococcus aureus [8] it was 0.5 µg/mL (≈ 0.905 µM).
Regarding `O=C(O)c1ccc(-n2cc(CNc3ccc(Oc4ccccc4)cc3)c(-c3ccc(F)cc3)n2)cc1`, the minimum inhibitory concentration (MIC) with Bacillus subtilis was found to be 2 µg/mL (≈ 4.17 µM); in the assay on Staphylococcus aureus [1], 4 µg/mL (≈ 8.34 µM); with Enterococcus faecalis [2], 4 µg/mL (≈ 8.34 µM); with Enterococcus faecium it was 4 µg/mL (≈ 8.34 µM); in the assay on Staphylococcus aureus [3], 2 µg/mL (≈ 4.17 µM); in assay [4], 4 µg/mL (≈ 8.34 µM). Also, the MIC was determined as 2 µg/mL (≈ 4.17 µM) in the assay with Staphylococcus aureus [5], 8 µg/mL (≈ 16.7 µM) in the assay on Enterococcus faecalis [6], 2 µg/mL (≈ 4.17 µM) in the assay with Staphylococcus aureus [7] and 1 µg/mL (≈ 2.09 µM) in the assay with Staphylococcus aureus [8].
As to `O=C(O)c1ccc(-n2cc(CNc3ccc(F)cc3)c(-c3ccc(F)cc3)n2)cc1`, the minimal inhibitory concentration (MIC) in the assay with Bacillus subtilis is 16 µg/mL (≈ 39.5 µM); in the assay on Staphylococcus aureus [1] it was 16 µg/mL (≈ 39.5 µM); in the assay with Enterococcus faecalis [2], greater than 32 µg/mL; in the assay on Enterococcus faecium, greater than 32 µg/mL; in the assay on Staphylococcus aureus [3], 32 µg/mL (≈ 78.9 µM); in assay [4], 32 µg/mL (≈ 78.9 µM). For the same compound, the minimum inhibitory concentration (MIC) is 16 µg/mL (≈ 39.5 µM) in the assay with Staphylococcus aureus [5], greater than 32 µg/mL in the assay on Enterococcus faecalis [6], 16 µg/mL (≈ 39.5 µM) with Staphylococcus aureus [7] and 16 µg/mL (≈ 39.5 µM) with Staphylococcus aureus [8].
Turning to `O=C(O)c1ccc(-n2cc(CNc3cccc(Cl)c3)c(-c3ccc(F)cc3)n2)cc1`, the MIC in the assay on Bacillus subtilis came out at 4 µg/mL (≈ 9.48 µM); in the assay with Staphylococcus aureus [1], 16 µg/mL (≈ 37.9 µM); in the assay with Enterococcus faecalis [2] it was 32 µg/mL (≈ 75.9 µM); with Enterococcus faecium, 32 µg/mL (≈ 75.9 µM); with Staphylococcus aureus [3] it was 4 µg/mL (≈ 9.48 µM); in [4], 16 µg/mL (≈ 37.9 µM). The MIC with Staphylococcus aureus [5] was 8 µg/mL (≈ 19 µM); in the assay with Enterococcus faecalis [6] it was 32 µg/mL (≈ 75.9 µM); in the assay on Staphylococcus aureus [7], 8 µg/mL (≈ 19 µM); in the assay on Staphylococcus aureus [8], 4 µg/mL (≈ 9.48 µM).
On to `O=C(O)c1ccc(-n2cc(CNc3cc(C(F)(F)F)cc(C(F)(F)F)c3)c(-c3ccc(F)c(F)c3)n2)cc1`, for which the MIC with Bacillus subtilis was found to be 0.5 µg/mL (≈ 0.924 µM); in the assay with Staphylococcus aureus [1] it was 1 µg/mL (≈ 1.85 µM); in the assay on Enterococcus faecalis [2], 2 µg/mL (≈ 3.69 µM); in the assay on Enterococcus faecium it was 2 µg/mL (≈ 3.69 µM); with Staphylococcus aureus [3], 0.5 µg/mL (≈ 0.924 µM); in [4], 4 µg/mL (≈ 7.39 µM). Also, the MIC with Staphylococcus aureus [5] was 1 µg/mL (≈ 1.85 µM); with Enterococcus faecalis [6], 2 µg/mL (≈ 3.69 µM); in the assay with Staphylococcus aureus [7], 1 µg/mL (≈ 1.85 µM); in the assay on Staphylococcus aureus [8], 0.5 µg/mL (≈ 0.924 µM).

One may read the MIC as the lowest concentration that inhibits growth of the organism.
